According to patent US12240844B2 (Voronoi, Inc., priority 2019, dated 2025):

What follows are compounds tested against LRRK2 (G2019S) (Homo sapiens, UniProt Q5S007, G2019S) (assay: LRRK2 G2019S enzyme inhibition, ADP-Glo kinase assay).
Type: biochemical
Parameters: purchased SignalChem L10-12GG
Outline: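 Purified human LRRK2 G2019S (16 ng) with 25 μM ATP and 0.2 μg substrate, 2 h at 25° C in 40 mM Tris-HCl pH 7.4, 20 mM MgCl2, 0.5 mg/ml BSA, 50 μM DTT; compound at 12 final concentrations from 50 μM downward. ADP-Glo luminescence versus solvent control gave IC50 (nM).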

Sequence of LRRK2 (G2019S) (Q5S007 970-2527 G2019S limits assumed): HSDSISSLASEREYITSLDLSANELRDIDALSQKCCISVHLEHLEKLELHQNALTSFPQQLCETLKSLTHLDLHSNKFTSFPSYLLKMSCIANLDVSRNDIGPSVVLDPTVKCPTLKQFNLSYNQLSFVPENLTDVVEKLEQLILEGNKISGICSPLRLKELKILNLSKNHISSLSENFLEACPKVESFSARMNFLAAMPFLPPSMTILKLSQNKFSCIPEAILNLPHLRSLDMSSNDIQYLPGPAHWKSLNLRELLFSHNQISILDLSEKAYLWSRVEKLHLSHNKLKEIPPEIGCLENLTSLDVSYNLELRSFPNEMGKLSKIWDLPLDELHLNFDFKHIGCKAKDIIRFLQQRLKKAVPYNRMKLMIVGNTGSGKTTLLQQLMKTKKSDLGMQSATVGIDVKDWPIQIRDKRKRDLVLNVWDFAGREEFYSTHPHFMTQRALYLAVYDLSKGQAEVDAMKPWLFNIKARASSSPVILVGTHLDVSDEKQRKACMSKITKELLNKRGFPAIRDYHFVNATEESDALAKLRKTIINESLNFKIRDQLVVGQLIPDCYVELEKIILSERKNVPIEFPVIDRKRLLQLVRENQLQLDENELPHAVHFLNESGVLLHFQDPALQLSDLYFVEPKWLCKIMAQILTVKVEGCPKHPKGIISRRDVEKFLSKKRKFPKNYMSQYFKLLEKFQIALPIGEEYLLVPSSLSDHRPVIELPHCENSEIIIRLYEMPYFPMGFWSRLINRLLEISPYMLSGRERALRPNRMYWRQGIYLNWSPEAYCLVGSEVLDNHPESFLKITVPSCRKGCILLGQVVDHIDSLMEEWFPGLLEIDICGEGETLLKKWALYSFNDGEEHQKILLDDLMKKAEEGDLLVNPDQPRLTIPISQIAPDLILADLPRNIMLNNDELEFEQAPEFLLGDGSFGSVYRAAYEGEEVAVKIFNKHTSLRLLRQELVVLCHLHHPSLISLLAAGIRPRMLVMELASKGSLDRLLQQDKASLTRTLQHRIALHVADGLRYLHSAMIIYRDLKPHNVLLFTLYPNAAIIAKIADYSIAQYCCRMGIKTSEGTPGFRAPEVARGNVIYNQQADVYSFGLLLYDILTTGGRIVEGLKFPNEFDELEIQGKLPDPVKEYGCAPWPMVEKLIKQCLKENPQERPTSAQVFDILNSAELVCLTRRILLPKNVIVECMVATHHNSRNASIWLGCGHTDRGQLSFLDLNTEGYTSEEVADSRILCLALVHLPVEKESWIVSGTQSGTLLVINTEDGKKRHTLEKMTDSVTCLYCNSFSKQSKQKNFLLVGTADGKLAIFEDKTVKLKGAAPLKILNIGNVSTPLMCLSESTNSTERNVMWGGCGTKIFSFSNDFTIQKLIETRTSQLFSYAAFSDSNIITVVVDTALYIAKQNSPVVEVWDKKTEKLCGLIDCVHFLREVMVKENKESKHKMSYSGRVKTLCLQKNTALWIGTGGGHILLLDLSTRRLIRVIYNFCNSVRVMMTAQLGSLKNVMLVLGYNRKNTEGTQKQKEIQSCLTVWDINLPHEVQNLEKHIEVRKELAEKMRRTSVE

Row | IC50 | SMILES
1 | < 100 nM | CNc1cc(Nc2ccc(S(=O)(=O)N3CCC(N4C[C@H]5C[C@@H]4CO5)CC3)cc2OC)nc2[nH]cc(C(F)(F)F)c12 [Example 243, N^6-(4-((4-((1R,4R)-2-oxa-5-azabicyclo[2.2.1]heptan-5-yl)piperidin-1-yl)sulfonyl)-2-methoxyphenyl)-N^4-methyl-3-(trifluoromethyl)-1H-pyrrolo[2,3-b]pyridine-4,6-diamine]
2 | < 100 nM | COc1cc(S(=O)(=O)N2CCC(N3CCOCC3)CC2)ccc1Nc1cc(NCCS(C)(=O)=O)c2c(C(F)(F)F)c[nH]c2n1 [Example 194, N^6-(2-methoxy-4-((4-morpholinopiperidin-1-yl)sulfonyl)phenyl)-N^4-(2-(methylsulfonyl)ethyl)-3-(trifluoromethyl)-1H-pyrrolo[2,3-b]pyridine-4,6-diamine]
3 | 101 to 300 nM | CCNc1cc(Nc2ccc(P3(=O)CCN(C4CCOCC4)CC3)cc2OC)nc2[nH]cc(C(F)(F)F)c12 [Example 94, 4-(4-((4-(ethylamino)-3-(trifluoromethyl)-1H-pyrrolo[2,3-b]pyridin-6-yl)amino)-3-methoxyphenyl)-1-(tetrahydro-2H-pyran-4-yl)-1,4-azaphosphinane 4-oxide]
4 | < 100 nM | CCNc1cc(Nc2ccc(C(=O)N3CCC(N4CCOCC4)CC3)c3c2OCO3)nc2[nH]cc(C(F)(F)F)c12 [Example 37, (7-((4-(ethylamino)-3-(trifluoromethyl)-1H-pyrrolo[2,3-b]pyridin-6-yl)amino)benzo[d][1,3]dioxol-4-yl)(4-morpholinopiperidin-1-yl)methanone]
